Like-named read-outs stand apart in the source and are kept apart here.
Experiments:
[1] = biological target: T1, Recombinant human PKC-theta (His-tagged 362-706) (Homo sapiens, UniProt Q04759); experiment: PKC-theta inhibition assay (HTRF KinEASE kit); assay type: biochemical; details: ATP 6.5 μM, STK substrate 525 nM
T1 construct: Recombinant human PKC-theta (His-tagged 362-706); His
How it was run: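 IC50 values were from 4-parameter logistic fits of percent inhibition, based on acceptor/donor HTRF ratios over 10 semi-log compound doses. Kinase reactions, started with substrate plus ATP, ran 30 min at 25 °C in buffer supplemented with 10 mM MgCl2, 1 mM DTT and 0.1% Tween 20; detection lasted 2 h.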

[2] = biological target: T2, Recombinant human PKC-delta (His-tagged 345-676) (Homo sapiens, UniProt Q05655); experiment: PKC-delta inhibition assay (HTRF KinEASE kit); assay type: biochemical; details: ratio, PKC-theta vs PKC-delta HTRF; for PKC-theta/PKC-delta selectivity (binned): binned A to G
T2 construct: PKC-delta (His-tagged 345-676); His
T2 sequence (Q05655 345-676): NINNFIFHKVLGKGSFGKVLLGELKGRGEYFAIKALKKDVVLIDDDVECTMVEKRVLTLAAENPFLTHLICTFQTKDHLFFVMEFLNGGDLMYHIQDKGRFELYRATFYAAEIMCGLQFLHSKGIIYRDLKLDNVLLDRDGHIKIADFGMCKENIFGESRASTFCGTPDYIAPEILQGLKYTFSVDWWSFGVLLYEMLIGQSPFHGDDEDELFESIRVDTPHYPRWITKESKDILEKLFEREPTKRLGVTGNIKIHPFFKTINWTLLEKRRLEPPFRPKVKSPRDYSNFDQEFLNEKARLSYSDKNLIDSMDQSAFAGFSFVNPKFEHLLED

[3] = tested on: IL-2 secretion by human effector memory T cells (TEM); experiment: Effector memory T cells IL-2 release assay (CD3/CD28 stimulation, HTRF IL-2 detection); assay type: cell-based; details: Homo sapiens, T-cell, 24 h
How it was run: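 IL-2 released into the supernatant was quantified by HTRF after 24 h at 37 °C in 5% CO2. The cells were stimulated primary human TEM from donor buffy coats, treated with a 10-point semi-log compound series (0.1% DMSO final, triplicates).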

[4] = binned A to H, read-out: PKC-theta HTRF pIC50 (binned) (converted)
[5] = read-out: PKC-theta HTRF pIC50 (converted)
[6] = binned A to G, read-out: PKC-theta IL2 pIC50 (binned) (converted)
[7] = read-out: PKC-theta IL2 pIC50 (converted)

T1 sequence (Q04759 362-706): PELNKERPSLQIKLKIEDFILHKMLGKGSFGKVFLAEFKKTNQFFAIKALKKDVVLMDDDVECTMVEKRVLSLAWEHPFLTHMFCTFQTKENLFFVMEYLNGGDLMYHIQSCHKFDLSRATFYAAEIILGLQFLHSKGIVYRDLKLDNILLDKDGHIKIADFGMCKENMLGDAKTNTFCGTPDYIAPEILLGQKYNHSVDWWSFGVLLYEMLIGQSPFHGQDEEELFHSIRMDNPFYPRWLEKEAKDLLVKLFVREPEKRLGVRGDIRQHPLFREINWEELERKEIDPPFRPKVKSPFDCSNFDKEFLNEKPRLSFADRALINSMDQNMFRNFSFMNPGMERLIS

Question: Which results are given for `CC1(C)C(=O)Nc2nccc(-c3cc(C(F)(F)F)cc(N4CCN[C@@H](CO)C4)n3)c21` [Example 83]?
Answer: IC50 [1, 4]: 1 to 3.16 nM; IC50 [1, 5]: 3.16 nM; PKC-theta/PKC-delta selectivity [2]: 20; PKC-theta/PKC-delta selectivity (binned) [2]: D (a ratio of between 10 and 20); IC50 [3, 6]: 31.6 to 100 nM; IC50 [3, 7]: 79.4 nM

Question: For `CC1(C)C(=O)Nc2nccc(-c3cc(C(F)(F)F)cc(N4CCNC5(CC5)C4)n3)c21` [Example 84], which IC50 [1, 4] is on record?
Answer: Its IC50 is 3.16 to 10 nM.

Question: What about the IC50 [1, 5] of the same compound?
Answer: Its IC50 is 7.94 nM.

Question: What about the PKC-theta/PKC-delta selectivity [2] of the same compound?
Answer: Its PKC-theta/PKC-delta selectivity is 14.

Question: What about the “PKC-theta/PKC-delta selectivity (binned)” value [2] of the same compound?
Answer: The value was “D (a ratio of between 10 and 20)”.

Question: And the IC50 [3, 6]?
Answer: Its IC50 is 316 to 1000 nM.

Question: And the IC50 [3, 7]?
Answer: The IC50 was 316 nM.

Question: For `CC1(C)C(=O)Nc2nccc(-c3cc(C(F)(F)F)cc(N4CC5CC4CN5)n3)c21` (stereo not drawn) [Example 85], which IC50 [1, 4] is on record?
Answer: Its IC50 is 10 to 31.6 nM.

Question: What about the IC50 [1, 5] of the same compound?
Answer: The IC50 was 20 nM.

Question: And the PKC-theta/PKC-delta selectivity [2]?
Answer: The PKC-theta/PKC-delta selectivity was 20.

Question: And the “PKC-theta/PKC-delta selectivity (binned)” value [2]?
Answer: Its value is “D (a ratio of between 10 and 20)”.

Question: What about the IC50 [3, 6] of the same compound?
Answer: Its IC50 is 316 to 1000 nM.

Question: What about the IC50 [3, 7] of the same compound?
Answer: Its IC50 is 316 nM.

Question: `CC1(C)C(=O)Nc2nccc(-c3cc(OC(F)F)cc(N4CCNCC4)n3)c21` [Example 86] was tested. Which IC50 [1, 4] did it give?
Answer: The IC50 was 31.6 to 100 nM.

Question: And the IC50 [1, 5]?
Answer: Its IC50 is 31.6 nM.

Question: And the PKC-theta/PKC-delta selectivity [2]?
Answer: Its PKC-theta/PKC-delta selectivity is 10.

Question: And the “PKC-theta/PKC-delta selectivity (binned)” value [2]?
Answer: Its value is “E (a ratio of between 5 and 10)”.

Question: What about the IC50 [3, 6] of the same compound?
Answer: Its IC50 is 316 to 1000 nM.

Question: What about the IC50 [3, 7] of the same compound?
Answer: The IC50 was 501 nM.

Question: Which IC50 [1, 4] does the source give for `CC1(C)C(=O)Nc2nccc(-c3cc(C(F)F)cc(N4CCNCC4)n3)c21` [Example 87] here?
Answer: Its IC50 is 3.16 to 10 nM.

Question: And the IC50 [1, 5]?
Answer: The IC50 was 6.31 nM.

Question: What about the PKC-theta/PKC-delta selectivity [2] of the same compound?
Answer: Its PKC-theta/PKC-delta selectivity is 10.

Question: What about the “PKC-theta/PKC-delta selectivity (binned)” value [2] of the same compound?
Answer: Its value is “D (a ratio of between 10 and 20)”.

Question: What about the IC50 [3, 6] of the same compound?
Answer: Its IC50 is 100 to 316 nM.

Question: What about the IC50 [3, 7] of the same compound?
Answer: The IC50 was 100 nM.

Question: With `CC1(C)C(=O)Nc2nccc(-c3cc(C(F)(F)F)nc(N4CCNCC4)n3)c21` [Example 98] as the compound, how does the IC50 [1, 4] read?
Answer: The IC50 was 10 to 31.6 nM.

Question: What about the IC50 [1, 5] of the same compound?
Answer: Its IC50 is 20 nM.

Question: And the PKC-theta/PKC-delta selectivity [2]?
Answer: The PKC-theta/PKC-delta selectivity was 15.

Question: And the “PKC-theta/PKC-delta selectivity (binned)” value [2]?
Answer: The value was “D (a ratio of between 10 and 20)”.

Question: What about the IC50 [3, 6] of the same compound?
Answer: Its IC50 is 100 to 316 nM.

Question: What about the IC50 [3, 7] of the same compound?
Answer: Its IC50 is 316 nM.

Question: How did the IC50 [1, 4] turn out when `CN1CCN(c2cc(C(F)(F)F)cc(-c3ccnc4c3C(C)(C)C(=O)N4)n2)CC1` [Example 99] was run?
Answer: The IC50 was 10 to 31.6 nM.

Question: And the IC50 [1, 5]?
Answer: Its IC50 is 31.6 nM.

Question: And the PKC-theta/PKC-delta selectivity [2]?
Answer: Its PKC-theta/PKC-delta selectivity is 22.

Question: What about the “PKC-theta/PKC-delta selectivity (binned)” value [2] of the same compound?
Answer: Its value is “C (a ratio of between 20 and 30)”.

Question: And the IC50 [3, 6]?
Answer: The IC50 was 316 to 1000 nM.

Question: What about the IC50 [3, 7] of the same compound?
Answer: Its IC50 is 794 nM.

Question: Which IC50 [1, 4] does the source give for `CC1(C)C(=O)Nc2nccc(-c3cc(C(F)(F)F)cc(NC4CCNC4)n3)c21` (stereo not drawn) [Example 100] here?
Answer: The IC50 was 31.6 to 100 nM.

Question: And the IC50 [1, 5]?
Answer: Its IC50 is 63.1 nM.

Question: What about the PKC-theta/PKC-delta selectivity [2] of the same compound?
Answer: The PKC-theta/PKC-delta selectivity was 30.

Question: What about the “PKC-theta/PKC-delta selectivity (binned)” value [2] of the same compound?
Answer: Its value is “B (a ratio of between 30 and 50)”.

Question: What about the IC50 [3, 6] of the same compound?
Answer: Its IC50 is over 1000 nM.

Question: What about the IC50 [3, 7] of the same compound?
Answer: The IC50 was 5010 nM.

Question: What does the source list for `C[C@H]1CNCCN1c1cc(C(F)(F)F)cc(-c2ccnc3c2C(C)(C)C(=O)N3)n1` [Example 101]?
Answer: IC50 [1, 4]: 3.16 to 10 nM; IC50 [1, 5]: 6.31 nM; PKC-theta/PKC-delta selectivity [2]: 12; PKC-theta/PKC-delta selectivity (binned) [2]: D (a ratio of between 10 and 20); IC50 [3, 6]: 31.6 to 100 nM; IC50 [3, 7]: 100 nM

Question: Which IC50 [1, 4] does the source give for `C[C@@H]1CNCCN1c1cc(C(F)(F)F)cc(-c2ccnc3c2C(C)(C)C(=O)N3)n1` [Example 102] here?
Answer: Its IC50 is 1 to 3.16 nM.

Question: And the IC50 [1, 5]?
Answer: The IC50 was 1.58 nM.

Question: And the PKC-theta/PKC-delta selectivity [2]?
Answer: Its PKC-theta/PKC-delta selectivity is 14.

Question: And the “PKC-theta/PKC-delta selectivity (binned)” value [2]?
Answer: The value was “D (a ratio of between 10 and 20)”.

Question: And the IC50 [3, 6]?
Answer: The IC50 was 10 to 31.6 nM.

Question: And the IC50 [3, 7]?
Answer: The IC50 was 20 nM.

Question: How did the IC50 [1, 4] turn out when `O=C1Nc2nccc(-c3cc(C(F)(F)F)cc(N4CCNCC4)n3)c2C12CCCC2` [Example 103] was run?
Answer: Its IC50 is 10 to 31.6 nM.

Question: What about the IC50 [1, 5] of the same compound?
Answer: The IC50 was 15.8 nM.

Question: What about the PKC-theta/PKC-delta selectivity [2] of the same compound?
Answer: The PKC-theta/PKC-delta selectivity was 6.

Question: What about the “PKC-theta/PKC-delta selectivity (binned)” value [2] of the same compound?
Answer: The value was “E (a ratio of between 5 and 10)”.

Question: And the IC50 [3, 6]?
Answer: The IC50 was 100 to 316 nM.

Question: What about the IC50 [3, 7] of the same compound?
Answer: Its IC50 is 100 nM.

Question: How did the IC50 [1, 4] turn out when `C[C@@H]1CN(c2ccc(Cl)c(-c3ccnc4c3[C@](C)(O)C(=O)N4)c2)CCN1` [Example 106] was run?
Answer: The IC50 was 316 to 1000 nM.

Question: And the IC50 [1, 5]?
Answer: The IC50 was 1000 nM.

Question: And the PKC-theta/PKC-delta selectivity [2]?
Answer: The PKC-theta/PKC-delta selectivity was 10.

Question: And the “PKC-theta/PKC-delta selectivity (binned)” value [2]?
Answer: The value was “D (a ratio of between 10 and 20)”.

Question: What about the IC50 [3, 6] of the same compound?
Answer: Its IC50 is over 1000 nM.

Question: What about the IC50 [3, 7] of the same compound?
Answer: The IC50 was 10000 nM.

Question: With `C[C@H]1CN(c2ccc(Cl)c(-c3ccnc4c3[C@](C)(O)C(=O)N4)c2)CCN1` [Example 107] as the compound, how does the IC50 [1, 4] read?
Answer: Its IC50 is 31.6 to 100 nM.

Question: What about the IC50 [1, 5] of the same compound?
Answer: The IC50 was 63.1 nM.

Question: And the PKC-theta/PKC-delta selectivity [2]?
Answer: The PKC-theta/PKC-delta selectivity was 7.

Question: What about the “PKC-theta/PKC-delta selectivity (binned)” value [2] of the same compound?
Answer: The value was “E (a ratio of between 5 and 10)”.

Question: What about the IC50 [3, 6] of the same compound?
Answer: The IC50 was 316 to 1000 nM.

Question: And the IC50 [3, 7]?
Answer: The IC50 was 501 nM.
